Converted amounts (≈) assume the structure as drawn. Where only a bound is given, the exact number is not on record here.

The test system of series [1] is Mycobacterium tuberculosis. In words: Antitubercular activity against Mycobacterium tuberculosis H37Rv by two fold serial dilution method. It counts as functional.
The test system of another series is Vero. The series is described as follows: Cytotoxicity against african green monkey Vero cells after 72 hrs by MTT assay. It counts as cell-based. Conditions: Chlorocebus sabaeus. (Formazan colour is commonly taken as a measure of viable cells.)
The nature of series [2]: Safety index, ratio of IC50 for african green monkey Vero cells to MIC for Mycobacterium tuberculosis H37Rv. It counts as toxicity, cell-based.

As for `COc1cc2c(cc1OC)C1=NN(C(=O)Nc3ccc([N+](=O)[O-])cc3)C(c3ccncc3)C1C2` (stereo not drawn), in series [1], the MIC (as a rule, the lowest concentration that inhibits growth of the organism) worked out at 6.8 µM (≈ 3.12 µg/mL). Inhibition with Vero was half-maximal at 68 µM (IC50).

For `COc1cc2c(cc1OC)C1=NN(C(=O)Nc3ccc(Cl)cc3)C(c3ccncc3)C1C2` (stereo not drawn), the MIC in series [1] was determined as 6.96 µM (≈ 3.12 µg/mL). Further, the IC50 – broadly, the concentration that gives 50% inhibition – with Vero was > 139 µM.

`COc1cc2c(cc1OC)C1=NN(C(=O)Nc3ccc(Cl)cc3)C(c3ccccc3Cl)C1C2` (stereo not drawn) registered an MIC in series [1] of 13.9 µM (≈ 6.71 µg/mL).

Consider `COc1cc2c(cc1OC)C1=NN(C(=O)Nc3ccc(Cl)cc3)C(c3ccc(F)cc3)C1C2` (stereo not drawn), for which the selectivity ratio in series [2] is > 161. This molecule registered an MIC in series [1] of 0.83 µM (≈ 0.387 µg/mL). Further, the IC50 in the series with Vero was > 134 µM.

Turning to `COc1ccc(C2C3Cc4cc(OC)c(OC)cc4C3=NN2C(=O)Nc2ccc(Cl)cc2)cc1OC` (stereo not drawn), the MIC in series [1] came out at 9.8 µM (≈ 4.98 µg/mL).

In series [1], `COc1cc2c(cc1OC)C1=NN(C(=O)Nc3ccc(Cl)cc3)C(c3ccccc3)C1C2` (stereo not drawn) had an MIC of 6.97 µM (≈ 3.12 µg/mL). The IC50 with Vero is > 139 µM.

For `COc1ccc(C2C3Cc4cc(OC)c(OC)cc4C3=NN2C(=O)Nc2ccc(Cl)cc2)cc1` (stereo not drawn), in series [1], the MIC was determined as 10.5 µM (≈ 5 µg/mL).

In turn, `COc1cc2c(cc1OC)C1=NN(C(=O)Nc3ccc([N+](=O)[O-])cc3)C(c3ccccc3Cl)C1C2` (stereo not drawn) registered an MIC in series [1] of 12.7 µM (≈ 6.25 µg/mL).

For `COc1cc2c(cc1OC)C1=NN(C(=O)Nc3ccc([N+](=O)[O-])cc3)C(c3ccc(F)cc3)C1C2` (stereo not drawn), in series [1], the MIC worked out at 3.16 µM (≈ 1.51 µg/mL). In the series on Vero, it took 94.8 µM to reach half-maximal inhibition (IC50).

Regarding `COc1ccc(C2C3Cc4cc(OC)c(OC)cc4C3=NN2C(=O)Nc2ccc([N+](=O)[O-])cc2)cc1OC` (stereo not drawn), it took 12.1 µM (≈ 6.25 µg/mL) to inhibit growth in series [1] (MIC).

Take `COc1cc2c(cc1OC)C1=NN(C(=O)Nc3ccc([N+](=O)[O-])cc3)C(c3ccccc3)C1C2` (stereo not drawn): the MIC in series [1] turned out to be 6.81 µM (≈ 3.12 µg/mL). Further, in the series on Vero, inhibition was half-maximal at 51.1 µM (IC50).

On to `COc1ccc(C2C3Cc4cc(OC)c(OC)cc4C3=NN2C(=O)Nc2ccc([N+](=O)[O-])cc2)cc1` (stereo not drawn), for which it took 12.8 µM (≈ 6.24 µg/mL) to inhibit growth in series [1] (MIC).

Turning to `COc1cc2c(cc1OC)C1=NN(C(N)=O)C(c3ccncc3)C1C2` (stereo not drawn), in series [1], the lowest concentration to inhibit growth (MIC) was 11.8 µM (≈ 3.99 µg/mL).

`COc1cc2c(cc1OC)C1=NN(C(N)=O)C(c3ccccc3Cl)C1C2` (stereo not drawn) showed an MIC in series [1] of 10.8 µM (≈ 4 µg/mL).

In the case of `COc1cc2c(cc1OC)C1=NN(C(N)=O)C(c3ccc(F)cc3)C1C2` (stereo not drawn), in series [1], the lowest concentration to inhibit growth (MIC) was 8.44 µM (≈ 3 µg/mL). The same molecule came in with an IC50 with Vero of 177 µM.

In turn, `COc1ccc(C2C3Cc4cc(OC)c(OC)cc4C3=NN2C(N)=O)cc1OC` (stereo not drawn) had an MIC in series [1] of 10.1 µM (≈ 3.99 µg/mL).

Molecule `COc1cc2c(cc1OC)C1=NN(C(N)=O)C(c3ccccc3)C1C2` (stereo not drawn) showed an MIC in series [1] of 11.8 µM (≈ 3.99 µg/mL).

As to `COc1ccc(C2C3Cc4cc(OC)c(OC)cc4C3=NN2C(N)=O)cc1` (stereo not drawn), in series [1], the MIC worked out at 10.9 µM (≈ 3.99 µg/mL).

Consider `NNC(=O)c1ccncc1` [ISONIAZID], for which the MIC in series [1] stood at 0.56 µM (≈ 0.0768 µg/mL). In addition, the IC50 with Vero was > 456 µM.

Values taken from ChEMBL document CHEMBL1909540, “Synthesis and antimycobacterial evaluation of 3a,4-dihydro-3H-indeno [1,2-c] pyrazole-2-carboxamide analogues” (Eur J Med Chem, 2011).
